Data as given in US20250025438A1, “Derivative of aspartic acid and use thereof in treatment of metabolic diseases such as hepatic fibrosis and non-alcoholic hepatitis” (SHENZHEN JINGTAI TECHNOLOGY CO., LTD., priority 2021, published 2025).
Structures can show the parent of a compound that is named as a salt.

Key:
Format in all cases: cell-based
[1] = tested on: IL-1β; assay: In vitro efficacy in semi-activated LX2 cells, qPCR: IL-1β; details: Homo sapiens, LX-2, 50 µM, 48 hours, Q-PCR, read-out: IL-1β mRNA inhibition rate
[2] = tested on: Smad3; assay: In vitro efficacy in semi-activated LX2 cells, qPCR: Smad3; details: 48 hours, Q-PCR; for inhibition of the expression of Smad3 at the mRNA level: Table 2; for inhibition at 50 µM: Homo sapiens, LX-2, 50 µM, read-out: Smad3 mRNA inhibition rate
How it was run: (§1)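 Compound at 50 µM is added to adherent LX2 stellate cells and left for 48 hours before total RNA is isolated. Transcript levels are then measured by SYBR Green real-time PCR on cDNA and expressed by relative quantification.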

[3] = tested on: α-SMA; assay: In vitro efficacy in semi-activated LX2 cells, qPCR: α-SMA; details: 48 hours, Q-PCR; for inhibition at 50 µM: read-out: α-SMA mRNA inhibition rate; for inhibition of the expression of α-SMA at the mRNA level: Table 2
How it was run: as §1

[4] = tested on: α-SMA; assay: Semi-activated LX2 cells, Western blot: α-SMA protein; details: 50-400 μM, 48 hours, FIG. 2, vs 50 μM aspartic acid
[5] = tested on: TNF-α; assay: In vitro efficacy in semi-activated LX2 cells, qPCR: TNF-α; details: Homo sapiens, LX-2, 48 hours, Q-PCR, read-out: TNF-α mRNA inhibition rate
[6] = tested on: collagen I and collagen III; assay: Semi-activated LX2 cells, qPCR: collagen I and collagen III at the mRNA level; details: 48 hours, Q-PCR, Table 2
How it was run: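 LX-2 human hepatic stellate cells, adhered 12 h, were treated with 50 µM test compound for 48 h. Total RNA was extracted, and COL1A1, COL1A2 and COL3A1 mRNA were measured by SYBR Green qPCR.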

[7] = tested on: COL3A1; assay: In vitro efficacy in semi-activated LX2 cells, qPCR: COL3A1; details: Homo sapiens, LX-2, 50 µM, 48 hours, Q-PCR, read-out: COL3A1 mRNA inhibition rate
[8] = tested on: collagen I; assay: Semi-activated LX2 cells, Western blot: collagen I protein; details: 50-400 μM, 48 hours, FIG. 1, vs 50 μM aspartic acid

Structure (SMILES) | inhibition at 50 µM [1] | inhibition of the expression of Smad3 at the mRNA level [2] | inhibition at 50 µM [2] | inhibition at 50 µM [3] | inhibition of the expression of α-SMA at the mRNA level [3] | inhibitory effect on α-SMA protein as compared to ASP [4] | inhibition at 50 µM [5] | inhibition of the expression of collagen I and collagen III at the mRNA level [6] | inhibition at 50 µM [7] | inhibitory effect on collagen I protein expression as compared to ASP [8]
COC(=O)[C@@H](N)CC(=O)O [Compound 4] | 1 to 10% | could inhibit | 25 to 50% | 25 to 50% | could inhibit | stronger inhibitory effects | 25 to 50% | could inhibit | 25 to 50% | –
COC(=O)C[C@H](N)C(=O)O [Compound 6] | 1 to 10% | could inhibit | 25 to 50% | 10 to 25% | could inhibit | stronger inhibitory effects | 10 to 25% | could inhibit | 25 to 50% | stronger inhibitory effects
N[C@@H](CCC(=O)O)C(=O)O [Compound 47] | 1 to 10% | – | 1 to 10% | – | – | stronger inhibitory effects | 10 to 25% | could inhibit | 10 to 25% | stronger inhibitory effects
COC(=O)C[C@H](N)C(=O)OCOC(=O)[C@@H](N)CC(=O)OC [Compound 54, 4-dimethyl O′1,01-methylene (2S,2'S)-bis (2-aminosuccinate) hydrochloride] | – | – | – | – | could inhibit | – | 1 to 10% | could inhibit | 10 to 25% | stronger inhibitory effects
